| Structure (SMILES) | melting point |
| --- | --- |
| NC(=O)N(O)CC=Cc1cccc(F)c1Sc1ccc(Cl)cc1 | 125 to 127 °C |
| CC(=O)Nc1nc2c(s1)-c1c(c(-c3c[nH]cn3)nn1-c1ccccc1C(F)(F)F)CC2 | > 300 °C |
| Cc1cc(C2=NN(C(=S)Cl)[C@H](C)Cc3cc4c(cc32)OCO4)cc(C)c1[N+](=O)[O-] | 216 °C |
| CSCC(=O)Nc1ccccc1 | 100 °C |
| O=C(OC(c1ccccc1)c1ccccc1)C12CCC1CN(Cc1ccccc1)C2 (stereo unspecified) | 96 to 99 °C |
| COc1ccc(N2C(=O)C(N3C(=O)c4ccccc4C3=O)C2C(C)=Cc2ccccc2)cc1 (stereo unspecified) | 105 to 107 °C |
| CCOC(=O)N1CCc2nc3c(Cl)cccc3c(C)c2CC1 | 169 °C |
| N#Cc1cc(-c2ccccc2)[nH]c1Sc1ccncc1 | 172 to 174 °C |
| O=C(O)c1ccc(S(=O)(=O)Oc2ccc(-c3ccc(-c4c(Cc5ccccc5)oc5ccccc45)cc3)cc2)cc1 | 186 to 188 °C |
| Fc1cc(CC2(Cc3ccncc3)c3cccnc3-c3ncccc32)ccn1 | 228 to 230 °C |
| CCCc1c(O)ccc2c1OC(C)(CCC(=O)OC)CC2=O (stereo unspecified) | 102 °C |
| C[C@@H](NC(=O)[C@@H](NC(=O)OCc1ccccc1)C(Cc1ccccc1)C(=O)O)C(=O)O (stereo partly specified) | 158 to 159 °C |
| Cc1cc(C2=NOC(c3cc(Cl)cc(Cl)c3)(C(F)(F)F)C2)ccc1C(=O)NC1CON(C)C1=O (stereo unspecified) | 87 °C |
| CC(C)n1nc(-c2c(NCCN(C)C)nc(N)nc2-c2ccccc2)ccc1=O | 164 to 166 °C |
| Cc1ccc(N2N=C3c4cc(C(=O)CCl)sc4CCC3CC2=O)cc1 (stereo unspecified) | 169 to 171 °C |
| CNC(=O)c1cc2c(Oc3ccc(C(=O)NCCN4CCOCC4)cc3)cncc2s1 | 226 to 228 °C |
| O=C(NC1CCCCC1)c1ccc(F)c2c1CC(N(CCCc1c[nH]c3ccc(F)cc13)C1CCC1)CO2 (stereo unspecified) | 134 °C |
| Nc1cccc2c1C(=O)N1CCC[C@H]1c1c(C(=O)OC3CCCCC3)ncn1-2 | 211 to 212 °C |
| O=S(=O)(c1ccccc1)N1CCNc2ncc(I)cc21 | 145 to 146 °C |
| CC12CCC(C1)C1(C)Oc3ccc(C(=O)c4ccc(C=CC(=O)O)cc4)cc3C21C (stereo unspecified) | 242 to 243 °C |
| CC(C)(CNc1ccnc2cc(Cl)ccc12)NCc1cc(C(F)(F)F)cc(C(F)(F)F)c1 | 140 to 141 °C |
| O=C(O)C1CCc2[nH]c3cc(Cl)c(Cl)cc3c2C1 (stereo unspecified) | 243 to 244 °C |
| CC(C)(C(=O)O)c1cn2nc(Cl)ccc2n1 | 159 to 161 °C |
| CSc1nnc2c3ccccc3c(-c3ccccc3)nn12 | 220 to 221 °C |

| Structure (SMILES) | melting point |
| --- | --- |
| CCCc1c(Cl)oc2ccc(I)cc2c1=O | 103 to 105 °C |
| CCCC1CCC2C3CCc4cc(O)ccc4C3CCC12C (stereo unspecified) | 130 to 131 °C |
| CC1(C)C=Cc2cc(C(=O)NCCCCc3ccccc3)ccc2O1 | 65 to 70 °C |
| C(=Cc1cncn1Cc1ccccc1)CC(c1ccccc1)c1ccccc1 | 204 to 206 °C |
| CCC1CCC(NC(=O)NS(=O)(=O)c2ccc(CCNC(=O)N3CCC(C)CC3=O)cc2)CC1 (stereo unspecified) | 178 to 180 °C |
| Cn1nc2c(oc3ccccc32)c1NC=O | 184 to 187 °C |
| COc1cccc(C2=C(CC(C)=NO)C(=O)NCCC2)c1 | 155 to 158 °C |
| CCn1cc(C(=O)O)c(=O)c2cc(F)c(N3CCC(CNCCO)C3)c(F)c21 (stereo unspecified) | 215 to 216 °C |
| CP(=O)(O)CC(F)CN (stereo unspecified) | 78 to 84 °C |
| O=C(Nc1ccccc1)c1cccc(-c2ccnc3c(C(=O)c4cccs4)cnn23)c1 | 211 to 212 °C |
| CCOc1cc2c(Nc3cc(OC)c(Cl)cc3Cl)c(C#N)cnc2cc1OCCOC | 215 to 217 °C |
| Cc1c(C)c(N2CCN(c3ccc(C(F)(F)F)cc3)CC2)c(C)c2c1OC(C)(C)C2N1CCCCC1 (stereo unspecified) | 182 to 183 °C |
| CCn1cc(CN(C(=O)C2CCCc3ccc(OCc4ccccc4)cc32)c2ccc(C(C)C)cc2)cn1 (stereo unspecified) | 100 to 101 °C |
| Cc1ccc(N2C(=O)C(N)=C(C(=O)c3ccc(C(C)C)cc3)C2c2ccc(OC(F)(F)F)cc2)nn1 (stereo unspecified) | 258 to 260 °C |
| COc1cccc(NC(=O)O[C@@H]2CN=C(c3ccccc3)O[C@H]2c2ccccc2)c1 (racemic) | 110 °C |
| CCCCc1nc(S(C)=O)c(C(=O)OCC)n1CC1Oc2ccc(Cl)cc2O1 (stereo unspecified) | 103 °C |
| Fc1ccc(Cn2c(NC3CCN(CCNc4nnnn4-c4ccccc4)CC3)nc3ccccc32)cc1 | 171 °C |
| COc1cc(CCl)ccc1OCc1nc(-c2cccc(C#N)c2)oc1C | 150 to 151 °C |
| COc1cc2c(c3c1OC(C)(C)C3)C(c1ccc(NC(=O)c3cccnc3)cc1)=NC(C)(C)C2 | 130 to 137 °C |
| CN(C)CCCOc1ccc(C[C@H](NC(=O)[C@@H]2CCCN2S(=O)(=O)c2ccc(Cl)s2)C(=O)O)cc1 | > 200 °C |
| CCc1noc(-c2ncn(-c3cccnc3)c2COC)n1 | 70 to 72 °C |
| COc1ccc(NC(=O)c2c(C)c([N+](=O)[O-])cc3nc(OC)c(OC)nc23)cc1 | 206 to 208 °C |
| CCc1cc2c(cc1F)c(S(C)(=O)=O)c(-c1ccc(S(=O)(=O)NC(C)(C)C)cn1)n2-c1ncccn1 | 244 to 248 °C |
| CC1(C)OCC(=O)Nc2ccc(-c3cc(F)cc(C#N)c3)cc21 | 238 to 239 °C |

| Structure (SMILES) | melting point |
| --- | --- |
| Cc1cc2cc(CN3CCCCCC3)cnc2cc1NC(=O)c1ccc(-c2ccc(Cl)cc2)cc1 | 204 °C |
| COC(=O)c1cc(F)c(N2CCN(C(C)=O)CC2)nc1Nc1ccc(F)cc1F | 172 to 173 °C |
| CC(C)(C)OC(=O)N1CCCN(c2ccc(F)cc2)CC1 | 88 to 89 °C |
| Clc1ccc(Nc2cncc(-n3cccn3)n2)cc1 | 155 to 157 °C |
| CC(N)c1cc(NC(=O)OC(C)(C)C)ccc1NC(=O)OC(C)(C)C (stereo unspecified) | 170 °C |
| O=C(Nc1ccc(OCCN2CCOCC2)c2ccccc12)c1cccc(-n2cccc2)c1 | 142 to 143 °C |
| CCC(CC(=O)NC(=O)OC(C)(C)C)Nc1ccc(OC)cc1 (stereo unspecified) | 65 to 66 °C |
| O=C(c1ccc(F)c(F)c1)N1CCC[C@H](c2nc(-c3ccc([N+](=O)[O-])cc3)no2)C1 | 138 to 140 °C |
| COC(=O)c1ccc(O)cc1NC(=O)C=Cc1ccc(-c2ccccc2)cc1 | 292 to 296 °C |
| CCCc1c(OCCCCCBr)ccc2c1OCCC2=O | 47 to 48 °C |
| O=C(Cn1nc(-c2ccccc2O)nc1-c1ccccc1O)NCC(O)CO (stereo unspecified) | 180 to 181 °C |
| CC(C)NC(=O)c1c(NC(=O)c2cc(C(F)(F)F)nn2-c2ncccc2Cl)ccc2cccnc12 | 225 to 226 °C |
| O=C(N[C@H](Cc1cccc(OC(F)(F)C(F)F)c1)[C@@H](O)c1ccnc(F)c1)c1cccc2c1C=CCCC2 (racemic) | 159 to 160 °C |
| Cc1ccc2c(c1)C=Cc1sc(C)nc1C2c1cn(C)c(=O)[nH]c1=S (stereo unspecified) | 235 to 237 °C |
| Nc1nccc2ccc(OS(=O)(=O)C(F)(F)F)cc12 | 115 to 118 °C |
| Nc1ccccc1C(O)C1CC1 (stereo unspecified) | 76 to 79 °C |
| Cc1nnc2nc(-c3ccccc3)ccn12 | 303 to 306 °C |
| Cc1cccc(COc2cccc(OCc3cc(=O)c4ccccc4n3C)c2)c1OCC(=O)O | 192 to 194 °C |
| C=C1COc2ccc(C(C)=O)cc2C(Cc2ccccc2)(S(=O)(=O)c2ccccc2)C1 (stereo unspecified) | 131 to 132 °C |
| OCCCc1ccc2oc(Cc3ccc4ccccc4c3)nc2c1 | 102 to 103 °C |
| Fc1cnc(OC(c2ccnc3cc(Cl)ccc23)C(F)(F)F)nc1 (stereo unspecified) | 92 °C |
| O=C(O)c1cn(C2CC2)c2c(F)c(N3CC(O)C3)c(F)cc2c1=O | 286 to 288 °C |
| O=C(CNc1ccc2[nH]c(=O)oc2c1)N1CCC(Oc2ccccc2)CC1 | 220 to 223 °C |
| COc1ccc(-c2c[nH]cc2C#N)cc1OC | 212 to 214 °C |

| Structure (SMILES) | melting point |
| --- | --- |
| CC(=O)OC1CC(C)(C)N(OC(=NC2CCCCC2)N(C(=O)c2ccccc2)C2CCCCC2)C(C)(C)C1 | 147 to 152 °C |
| CCc1nc(-c2ccccc2)n(CC(C)(OC)OC)c(=O)c1C | 80 to 83 °C |
| Cc1c(F)c(F)c(F)c2c1c(=O)c(C(=O)O)cn2CCO | 244 to 247 °C |
| CCN(CC)c1ccc(-c2cc3ccccc3o2)cc1 | 117 to 119 °C |
| Cc1nn(-c2c(Cl)cc(C(F)(F)F)cc2Cl)c(N)c1SC(C)(F)F | 123 to 125 °C |
| CC(C)C(NC(=O)OCc1ccccc1)C(=O)NC(Cc1ccccc1)C(O)C(Cc1ccccc1)NC(=O)C(NC(=O)N1CCN(C)CC1)C(C)C (stereo unspecified) | 175 to 176 °C |
| CC(C)(C)OC(=O)N1CCc2c(cccc2C(=O)c2cc(Cl)ccc2N)C1 | 159 to 160 °C |
| CC(=O)SCC(Cc1ccccc1)C(=O)Nc1cccc(C(=O)OCc2ccccc2)c1 (stereo unspecified) | 108 to 109 °C |
| O=C1c2ccccc2C(=O)N1CCCOC(Cl)Cl | 101 to 103 °C |
| Cc1cc2c(cc1C)CCC(C(=O)O)=C2 | 222 to 223 °C |
| CC(C)N=C(NC(C)C)ON=C1CCCCC1 | 45 to 48 °C |
| CCOC(=O)C(=NOC)c1ccccc1CBr | 80 to 81 °C |
| Cc1cc(N2CCN(c3ccccc3)CC2)c2c(N)c(C(N)=O)sc2n1 | 247 to 250 °C |
| CCOC(=O)c1nc(Cl)nc(N)c1OC | 118 to 119 °C |
| O=C(O)CCc1cc2ccccc2c(-c2ccccc2)n1 | 146 °C |
| CCCCc1nc2cc(C(=O)O)cc(C(=O)O)c2n1Cc1ccccc1Cl | 299 to 301 °C |
| CC(=O)c1c(CO[N+](=O)[O-])n(C(C)=O)c(=O)n1C(C)=O | 135 to 136 °C |
| CCCCc1nc2c(N)nc3ccccc3c2n1CCOc1ccccc1 | 168 to 170 °C |
| C[C@H]1C(=O)OCN1C(=O)OC(C)(C)C | 64 to 67 °C |
| Cc1ccc(C(=O)Nc2ccc(C[C@H](NC(=O)Nc3ccccc3S(=O)(=O)c3ccccc3)C(=O)O)cc2)c(Cl)n1 | 210 °C |
| Cc1cc(-n2cnnc2)ccc1[N+](=O)[O-] | 208 to 210 °C |
| CCCCN1C(=O)c2cnc(-c3ccccc3)nc2N(C(=O)CN2CCN(C)CC2)c2ccccc21 | 90 to 94 °C |
| COc1ccccc1C1=C(C#N)C(c2cccc3nonc23)c2c[nH]nc2N1 (stereo unspecified) | 180 °C |
| CC(C(=O)O)c1ccc(Nc2nc3ccccc3[nH]2)cc1 (stereo unspecified) | 355 to 358 °C |

From a melting point compilation (Tetko et al.; mined from patent text by program, amines drawn as free bases though some values may be those of a salt)
